Reference: patent US5726195A, “Aminoacyl adenylate mimics as novel antimicrobial and antiparasitic agents” (Cubist Pharmaceuticals, Inc., priority 1996, dated 1998)
In brackets after ≈: the same amount, converted by molar mass.

What was measured:
[1] = tested on: M. catarrhalis ATCC 25240; assay: Whole cell antimicrobial screen, MIC; type: cell-based; settings: Moraxella catarrhalis, ATCC25240
Protocol: (§1) Compounds were tested for antimicrobial activity against a panel of organisms according to standard procedures described by the National Committee for Clinical Laboratory Standards (NCCLS document M7-A3, Vol. 13, No. 25, 1993/NCCLS document M27-P, Vol. 12, No. 25, 1992). Compounds were dissolved in 100% dimethyl sulfoxide and were diluted to the final reaction concentration (0.1 μg/mL-500 μg/mL) in microbial growth media. In al cases the final concentration of dimethyl sulfoxide incubated with cells is less than or equal to 1%. For minimum inhibitory concentration (MIC) calculations, 2-fold dilutions of compounds were added to wells of a microtiter plate containing 5×10^4 bacteria or fungal cells in a final volume of 100 lambda of an appropriate media (Mueller-Hinton Broth; Haemophilus Test Media; Mueller-Hinton Broth+5% Sheep Blood; or […]). Plates were incubated overnight at an appropriate temperature (30° C.-37° C.) and optical densities (measure of cell growth) were measured using a commercial plate reader. The MIC value is defined as the lowest compound concentration inhibiting growth of the test organism.

[2] = tested on: S. epidermidis ATCC 33501; assay: Whole cell antimicrobial screen, MIC; type: cell-based; settings: Staphylococcus epidermidis, ATCC33501
Protocol: as §1

B. subtilis ATCC 6633 = assay: Whole cell antimicrobial screen, MIC; type: cell-based; settings: Bacillus subtilis, ATCC6633
Protocol: as §1

S. aureus ATCC 14154 = assay: Whole cell antimicrobial screen, MIC; type: cell-based; settings: Staphylococcus aureus, ATCC14154
Protocol: as §1

S. aureus ATCC 6538P = assay: Whole cell antimicrobial screen, MIC; type: cell-based; settings: Staphylococcus aureus, ATCC6538P
Protocol: as §1

[3] = tested on: S. saprophyticus ATCC 35552; assay: Whole cell antimicrobial screen, MIC; type: cell-based; settings: Staphylococcus saprophyticus, ATCC35552
Protocol: as §1

K. pneumonia ATCC 4352 = assay: Whole cell antimicrobial screen, MIC; type: cell-based; settings: Klebsiella pneumoniae, ATCC4352
Protocol: as §1

E. faecium ATCC 6569 = assay: Whole cell antimicrobial screen, MIC; type: cell-based; settings: Enterococcus faecium, ATCC6569
Protocol: as §1

C. albicans ATCC 10231 = assay: Whole cell antimicrobial screen, MIC; type: cell-based; settings: Candida albicans, ATCC10231
Protocol: as §1

E. faecalis ATCC 33011 = assay: Whole cell antimicrobial screen, MIC; type: cell-based; settings: Enterococcus faecalis, ATCC33011
Protocol: as §1

[4] = biological target: E. Coli. IleRS (isoleucyl-tRNA synthetase) (Escherichia coli, UniProt P00956); assay: Inhibition of isoleucyl-tRNA synthetase (aminoacylation of tRNA with [3H]isoleucine); type: biochemical; settings: E. coli enzyme; irreversible inhibitors: values are 50% of the active enzyme concentration; read-out: IC50 E.Coli. IleRS
Sequence of E. Coli. IleRS (isoleucyl-tRNA synthetase) (P00956 whole entry): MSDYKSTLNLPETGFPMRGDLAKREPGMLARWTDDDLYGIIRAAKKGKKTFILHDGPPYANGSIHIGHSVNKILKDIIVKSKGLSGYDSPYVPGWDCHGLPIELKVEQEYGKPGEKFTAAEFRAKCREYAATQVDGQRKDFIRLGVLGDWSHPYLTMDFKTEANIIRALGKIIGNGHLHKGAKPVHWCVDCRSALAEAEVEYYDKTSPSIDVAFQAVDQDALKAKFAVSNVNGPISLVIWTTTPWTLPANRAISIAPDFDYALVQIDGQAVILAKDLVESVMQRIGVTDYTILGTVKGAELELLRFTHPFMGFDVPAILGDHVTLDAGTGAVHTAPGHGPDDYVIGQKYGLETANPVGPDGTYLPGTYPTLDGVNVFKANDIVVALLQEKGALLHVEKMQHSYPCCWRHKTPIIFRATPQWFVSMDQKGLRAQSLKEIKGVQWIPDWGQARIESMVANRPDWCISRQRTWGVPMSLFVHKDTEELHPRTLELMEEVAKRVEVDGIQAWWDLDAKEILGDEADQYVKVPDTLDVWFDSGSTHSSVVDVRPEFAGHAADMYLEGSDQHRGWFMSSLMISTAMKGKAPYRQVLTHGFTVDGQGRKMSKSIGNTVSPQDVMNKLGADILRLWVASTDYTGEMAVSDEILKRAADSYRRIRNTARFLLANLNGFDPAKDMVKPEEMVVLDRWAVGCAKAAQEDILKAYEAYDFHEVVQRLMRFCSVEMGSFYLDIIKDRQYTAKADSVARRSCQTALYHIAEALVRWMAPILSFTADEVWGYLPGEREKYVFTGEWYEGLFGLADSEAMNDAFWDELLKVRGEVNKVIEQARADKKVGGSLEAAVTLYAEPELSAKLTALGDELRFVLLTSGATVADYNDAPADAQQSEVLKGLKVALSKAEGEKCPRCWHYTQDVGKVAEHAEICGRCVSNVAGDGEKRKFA
Protocol: The extent of aminoacylation of tRNA with isoleucine catalyzed by isoleucyl-tRNA synthetase enzyme was measured by monitoring the incorporation of [3H] isoleucine into trichloroacetic acid-precipitable tRNA in the presence of a compound of Formula I, as compared with activity in the absence of inhibitor. The isoleucyl-tRNA synthetase enzymes are well known in the prior art and can be obtained and purified by known methods (for example see: D. Kern et at., Biochimie, 61, 1257-1272 (1979) and J. Gilbart et al., Antimicrobial Agents and Chemotherapy, 37 (1), 32-38 (1993)).
Isoleucyl-tRNA synthetase enzyme (0.08-2.0 nM, preferably, 0.4 nM) was first pre-incubated at 25° C. with 0.05 mg/ml bovine serum albumin, 10 mM DTT, 2.5% dimethyl sulfoxide, with or without a compound of Formula I, for 20 minutes. At this point a substrate solution (a solution containing the following: ATP, [^3 H]isoleucine, tRNA, HEPES, magnesium chloride, and potassium chloride) was added to give a final concentration of 0.0286 mg/ml bovine serum albumin, 5.7 mM DTT, 4 mM ATP, 5-20 μM [^3 H] isoleucine (1-15 Ci/mmol), 90 μM crude tRNA or 2 μM isoleucine specific tRNA, 1.4% dimethyl sulfoxide, 30 mM HEPES (pH 7.5), 10 mM magnesium chloride, and 50 mM potassium chloride and incubated at 25° C. Aliquots were removed at selected times (e.g. 5, 10, 20 minutes) and applied to 3MM filter paper discs (Whatman) and then dropped into 5% (wt/vol) trichloroacetic acid for >5 minutes. Filters were washed for three 10-minute periods in 5% trichloroacetic acid, rinsed in 95% ethanol and diethyl ether, and radioactivity was measured with Betafluor™ (National Diagnostics) by liquid scintillation counting.
Inhibitor activity is reported in Table II as an IC50 value (inhibitor concentration causing 50% inhibition of enzyme activity) per a known amount of active enzyme. In the case of irreversible inhibitors (1:1 stoichiometry) these values are 50% of the active enzyme concentration. The IC50 (in nM, E. coli) values of representative compounds of the present invention are listed in the second column of Table II.

S. pyogenes ATCC 8668 = assay: Whole cell antimicrobial screen, MIC; type: cell-based; settings: Streptococcus pyogenes, ATCC8668
Protocol: as §1

[5] = tested on: Streptococcus pyogenes (ATCC 8668); assay: Mouse protection test against wild type Streptococcus pyogenes; type: in vivo, Streptococcus pyogenes; female CD-1 mice; settings: 10 mg/kg sc (positive control), repeated at 4 hours, 7 days
From the text: (§2) The mouse protection test is an industry standard for measuring the efficacy of a test compound in vivo [for examples of this model see J. J. Clement, et al., Antimicrobial Agents and Chemotherapy, 38 (5), 1071-1078, (1994)]. As exemplified below, this test was used to show the in vivo efficacy of the compounds of the present invention against bacteria.
The in vivo antibacterial activity of compound X was established by infecting female CD-1 mice (Charles River Lab, Massachusettes) weighing 20-24 g intraperitoneally with Streptococcus pyogenes inoculum. The inoculum was prepared from Streptococcus pyogenes (ATCC 8668) which was cultured in brain heart infusion broth (Baltimore Biological Laboratories,Maryland) at 37° C. for 18 hr, and then 0.1 ml of the overnight culture was diluted with the medium to 5.0 ml for reading its OD at 600 nm (0.017). The turbidity of a 0.5 McFarland standard is equivalent to OD600 0.1, or 10^8 cfu/ml. Then, 8×10^5 cfu of the bacteria (940 μl of 1:1000 overnight culture) was added to 20 ml of phosphate buffered saline (Sigma P-0261 ) containing 5% hog gastric mucin (Sigma M-2378). All animals were injected with 0.5 ml of the inoculum, equivalent to 2×10^4 cfu/mouse which is the dose causing ~100% death of the animals without treatment.
Compound X (50 mg) was dissolved in 5.0 ml of 0.05M Tris.HCl (pH 8.8) to give a solution of 10 mg/ml. This solution was serially diluted with 0.05 M Tris.HCl by 5-fold (1.0 ml to 5.0 ml) to give 2, 0.4 and 0.08 mg/ml solutions. The known antibiotic erythromycin (Sigma E-6376, in phosphate buffered saline, 1 mg/ml, pH 7.0) was used as a positive control. All the solutions were filtered with 0.2 μm Nalgene syringe filter. Immediately after the bacterial inoculation, group 1 animals were subcutaneously (sc) injected with 0.05M Tris.HCl (no antibiotic) and groups 2 to 5 were given compound X sc at 0.8, 4, 20, and 100 mg/kg, respectively. Group 6 animals received erythromycin sc at 10 mg/kg. These injections were repeated once at 4 hours after the inoculation for the respective groups. The injection volume at each time was 10 ml per kilogram of body weight. The 50% protective dose (PD50) is calculated on the basis of the number of mice surviving 7 days after inoculation.

[6] = tested on: multidrug resistant Streptococcus pyogenes (#OTTO 209); assay: Mouse protection test against multidrug resistant Streptococcus pyogenes; type: in vivo, Streptococcus pyogenes; female CD-1 mice; settings: 10 mg/kg sc (positive control), repeated at 4 hours, 7 days
From the text: as §2
The in vivo activity of compound X against multidrug resistant bacteria was established by infecting female CD-1 mice (Charles River Lab, Massachusettes) weighing 20-24 g intraperitoneally with multidrug resistant Streptococcus pyogenes inoculum. The inoculum was prepared from multidrug resistant Streptococcus pyogenes (resistant to erythromycin, tetracycline, and chloramphenicol, #OTTO 209 obtained from Dr. Pentti Huovinen, National Public Health Institute, Finland) which was cultured in brain heart infusion broth (Baltimore Biological Laboratories, Maryland) at 37° C. for 2 hr, and then 0.1 ml of the culture was diluted with the medium to 1.0 ml for reading its OD at 600 nm (0.12). The turbidity of a 0.5 McFarland standard is equivalent to OD600 0.1, or 10^8 cfu/ml. Then, 4×10^8 cfu of the bacteria (333 μl was added to 20 ml of phosphate buffered saline (Sigma P-0261 ) containing 10 % hog gastric mucin (Sigma M-2378). All animals were injected with 0.5 ml of the inoculum, equivalent to 10^7 cfu/mouse which is the dose causing ~100% death of the animals without treatment.
Compound X (60 mg) was dissolved in 6.0 ml of 0.05M Tris.HCl (pH 8.8) to give a solution of 10 mg/ml. This solution was serially diluted two times with 0.05M Tris.HCl by 5-fold (1.0 ml to 5.0 ml) to give 2 and 0.4 mg/ml solutions. The known antibiotic vancomycin HCl (Sigma V-2002, in normal saline, 1 mg/ml, pH 6.0-7.0) was used as a positive control. All the solutions were filtered with 0.2 μm Nalgene syringe filter. Immediately after the bacterial inoculation, group 1 animals were subcutaneously (sc) injected with 0.05M Tris.HCl (no antibiotic) and groups 2 to 4 were given compound X sc at 4, 20 and 100 mg/kg, respectively. Group 5 animals received vancomycin sc at 10 mg/kg. These injections were repeated once at 4 hours after the inoculation for the respective groups. The injection volume at each time was 10 ml per kilogram of body weight. The 50% protective dose (PD50) is calculated on the basis of the number of mice surviving 7 days after inoculation.

SMILES	MIC [1] [µg/mL]	MIC [2] [µg/mL]	MIC (B. subtilis ATCC 6633) [µg/mL]	MIC (S. aureus ATCC 14154) [µg/mL]	MIC (S. aureus ATCC 6538P) [µg/mL]	MIC [3] [µg/mL]	MIC (K. pneumonia ATCC 4352) [µg/mL]	MIC (E. faecium ATCC 6569) [µg/mL]	MIC (C. albicans ATCC 10231) [µg/mL]	MIC (E. faecalis ATCC 33011) [µg/mL]	IC50 [4] [nM]	MIC (S. pyogenes ATCC 8668) [µg/mL]	Protective % [5] [%]	Number of Alive ([5]; of 5 mice)	Protective % [6] [%]	Number of Alive ([6]; of 5 mice)
CC[C@H](C)[C@H](N)C(=O)NS(=O)(=O)OC[C@H]1O[C@@H](CCn2nnc(N3CCN(c4ccccc4)CC3)n2)[C@H](O)[C@@H]1O [XXIV]	400 (≈ 686 µM)	50 (≈ 85.8 µM)	400 (≈ 686 µM)	> 400	400 (≈ 686 µM)	400 (≈ 686 µM)	400 (≈ 686 µM)	400 (≈ 686 µM)	500 (≈ 858 µM)	> 400	1.3	–	–	–	–	–
CC[C@H](C)[C@H](N)C(=O)NS(=O)(=O)OC[C@H]1O[C@@H](CCn2nnc(-c3ccc(C(=O)OCc4ccccc4)cc3)n2)[C@H](O)[C@@H]1O [VI]	–	5 (≈ 7.9 µM)	–	50 (≈ 79 µM)	25 (≈ 39.5 µM)	25 (≈ 39.5 µM)	–	100 (≈ 158 µM)	> 500	> 500	7.5	> 5	–	–	–	–
CC[C@H]1OC(=O)[C@H](C)[C@@H](O[C@H]2C[C@@](C)(OC)[C@@H](O)[C@H](C)O2)[C@H](C)[C@@H](O[C@@H]2O[C@H](C)C[C@H](N(C)C)[C@H]2O)[C@](C)(O)C[C@@H](C)C(=O)[C@H](C)[C@@H](O)[C@]1(C)O [Erythromycin, erythromycin, reference compound]	–	–	–	–	–	–	–	–	–	–	–	–	100	5	–	–
CN[C@H](CC(C)C)C(=O)N[C@H]1C(=O)N[C@@H](CC(N)=O)C(=O)N[C@H]2C(=O)N[C@H]3C(=O)N[C@H](C(=O)N[C@H](C(=O)O)c4cc(O)cc(O)c4-c4cc3ccc4O)[C@H](O)c3ccc(c(Cl)c3)Oc3cc2cc(c3O[C@@H]2O[C@H](CO)[C@@H](O)[C@H](O)[C@H]2O[C@H]2C[C@](C)(N)[C@H](O)[C@H](C)O2)Oc2ccc(cc2Cl)[C@H]1O [Vancomycin, vancomycin, reference compound]	–	–	–	–	–	–	–	–	–	–	–	–	–	–	100	5
